In ChEMBL document CHEMBL1201861, “Genomics of Drug Sensitity in Cancer screening data, Wellcome Trust Sanger Institute”:

Columns and labels:
Assay in all cases: cells
SF-539 = assay type: functional, cell-based, Homo sapiens; settings: Homo sapiens, SF-539;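 further: Read-out is a cell viability assay, with IC50 reflecting inhibition of cell growth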
Description: SANGER: Inhibition of human SF539 cell growth in a cell viability assay.

UACC-257 = assay type: functional, cell-based, Homo sapiens; settings: Homo sapiens, UACC-257
Description: SANGER: Inhibition of human UACC-257 cell growth in a cell viability assay.

KNS-81-FD = assay type: functional, cell-based, Homo sapiens; settings: Homo sapiens, KNS-81-FD;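 further: growth inhibition of KNS-81-FD cells, read out with a cell viability assay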
Description: SANGER: Inhibition of human KNS-81-FD cell growth in a cell viability assay.

SK-N-DZ = assay type: functional, cell-based, Homo sapiens; settings: Homo sapiens, SK-N-DZ; read-out: IC50;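 further: growth inhibition of the cancer cell line, read out through a viability assay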
Description: SANGER: Inhibition of human SK-N-DZ cell growth in a cell viability assay.

KARPAS-45 = assay type: functional, cell-based, Homo sapiens; settings: Homo sapiens, KARPAS-45;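 further: inhibition of cell line growth, read out through a viability assay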
Description: SANGER: Inhibition of human KARPAS-45 cell growth in a cell viability assay.

RPMI-8866 = assay type: functional, cell-based, Homo sapiens; settings: Homo sapiens, RPMI-8866
Description: SANGER: Inhibition of human RPMI-8866 cell growth in a cell viability assay.

ES6 = assay type: functional, cell-based; settings: Homo sapiens;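 further: growth inhibition of human ES6 cells, read out with a cell viability assay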
Description: SANGER: Inhibition of human ES6 cell growth in a cell viability assay.

MFM-223 = assay type: functional, cell-based, Homo sapiens; settings: Homo sapiens, MFM-223
Description: SANGER: Inhibition of human MFM-223 cell growth in a cell viability assay.

COLO-668 = assay type: functional, cell-based, Homo sapiens; settings: Homo sapiens, COLO-668
Description: SANGER: Inhibition of human COLO-668 cell growth in a cell viability assay.

NCI-H23 = assay type: functional, cell-based, Homo sapiens; settings: Homo sapiens, NCI-H23;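 further: cell viability assay measuring growth inhibition of NCI-H23 cells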
Description: SANGER: Inhibition of human NCI-H23 cell growth in a cell viability assay.

SW872 = assay type: functional, cell-based, Homo sapiens; settings: Homo sapiens, SW872;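 further: growth inhibition of SW872 cells, read out by a viability assay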
Description: SANGER: Inhibition of human SW872 cell growth in a cell viability assay.

ONS-76 = assay type: functional, cell-based, Homo sapiens; settings: Homo sapiens, ONS-76;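 further: growth inhibition of human ONS-76 cells, read out with a cell viability assay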
Description: SANGER: Inhibition of human ONS-76 cell growth in a cell viability assay.

SNU-5 = assay type: functional, cell-based, Homo sapiens; settings: Homo sapiens, SNU-5;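 further: cell viability readout used to measure growth inhibition in human NCI-SNU-5 cells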
Description: SANGER: Inhibition of human NCI-SNU-5 cell growth in a cell viability assay.

no-11 = assay type: functional, cell-based, Homo sapiens; settings: Homo sapiens;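 further: growth inhibition of human NO-11 cells, read out with a cell viability assay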
Description: SANGER: Inhibition of human no-11 cell growth in a cell viability assay.

BT-474 = assay type: functional, cell-based, Homo sapiens; settings: Homo sapiens, BT-474
Description: SANGER: Inhibition of human BT-474 cell growth in a cell viability assay.

D-263MG = assay type: functional, cell-based, Homo sapiens; settings: Homo sapiens, D-263MG
Description: SANGER: Inhibition of human D-263MG cell growth in a cell viability assay.

NH-12 = assay type: functional, cell-based, Homo sapiens; settings: Homo sapiens, NH-12;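 further: growth inhibition of NH-12 cells, read out with a cell viability assay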
Description: SANGER: Inhibition of human NH-12 cell growth in a cell viability assay.

KLE = assay type: functional, cell-based; settings: Homo sapiens;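 further: growth inhibition of human KLE cells, read out with a cell viability assay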
Description: SANGER: Inhibition of human KLE cell growth in a cell viability assay.

CTB-1 = assay type: functional, cell-based, Homo sapiens; settings: Homo sapiens, CTB-1
Description: SANGER: Inhibition of human CTB-1 cell growth in a cell viability assay.

IA-LM = assay type: functional, cell-based; settings: Homo sapiens;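 further: cell viability assay measuring growth inhibition of human IA-LM cells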
Description: SANGER: Inhibition of human IA-LM cell growth in a cell viability assay.

KNS-42 = assay type: functional, cell-based; settings: Homo sapiens;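 further: growth inhibition of KNS-42 cells, read out with a cell viability assay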
Description: SANGER: Inhibition of human KNS-42 cell growth in a cell viability assay.

MPP-89 = assay type: functional, cell-based, Homo sapiens; settings: Homo sapiens, MPP-89;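 further: growth inhibition of human MPP-89 cells, read out with a cell viability assay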
Description: SANGER: Inhibition of human MPP-89 cell growth in a cell viability assay.

JVM-2 = assay type: functional, cell-based, Homo sapiens; settings: Homo sapiens, JVM-2;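 further: growth inhibition of JVM-2 cells determined by a cell viability assay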
Description: SANGER: Inhibition of human JVM-2 cell growth in a cell viability assay.

J-RT3-T3-5 = assay type: functional, cell-based, Homo sapiens; settings: Homo sapiens, J-RT3-T3-5;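 further: cell viability assay measuring growth inhibition of human J-RT3-T3-5 cells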
Description: SANGER: Inhibition of human J-RT3-T3-5 cell growth in a cell viability assay.

NB10 = assay type: functional, cell-based, Homo sapiens; settings: Homo sapiens, NB10;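 further: growth inhibition of NB10 cells, read out by a cell viability assay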
Description: SANGER: Inhibition of human NB10 cell growth in a cell viability assay.

MS-1 = assay type: functional, cell-based, Homo sapiens; settings: Homo sapiens, MS-1;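 further: growth inhibition of MS-1 cells, read out by cell viability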
Description: SANGER: Inhibition of human MS-1 cell growth in a cell viability assay.

GI-ME-N = assay type: functional, cell-based, Homo sapiens; settings: Homo sapiens, GI-ME-N;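 further: growth inhibition of human GI-ME-N cells, read out with a cell viability assay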
Description: SANGER: Inhibition of human GI-ME-N cell growth in a cell viability assay.

A4-Fuk = assay type: functional, cell-based, Homo sapiens; settings: Homo sapiens, A4-Fuk;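 further: growth inhibition of A4-Fuk cells, read out by a cell viability assay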
Description: SANGER: Inhibition of human A4-Fuk cell growth in a cell viability assay.

Lu-65 = assay type: functional, cell-based, Homo sapiens; settings: Homo sapiens, Lu-65;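 further: growth inhibition of Lu-65 cancer cells, read out by a cell viability assay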
Description: SANGER: Inhibition of human LU-65 cell growth in a cell viability assay.

COR-L88 = assay type: functional, cell-based, Homo sapiens; settings: Homo sapiens, COR-L88;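 further: growth inhibition of COR-L88 cells, read out with a cell viability assay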
Description: SANGER: Inhibition of human COR-L88 cell growth in a cell viability assay.

SNU1 = assay type: functional, cell-based, Homo sapiens; settings: Homo sapiens, SNU1;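 further: growth inhibition of human NCI-SNU-1 cells, measured with a cell viability assay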
Description: SANGER: Inhibition of human NCI-SNU-1 cell growth in a cell viability assay.

NCI-H1770 = assay type: functional, cell-based, Homo sapiens; settings: Homo sapiens, NCI-H1770;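 further: growth inhibition of NCI-H1770 cells determined with a viability readout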
Description: SANGER: Inhibition of human NCI-H1770 cell growth in a cell viability assay.

U-266 = assay type: functional, cell-based, Homo sapiens; settings: Homo sapiens, U-266
Description: SANGER: Inhibition of human U-266 cell growth in a cell viability assay.

NCI-H209 = assay type: functional, cell-based, Homo sapiens; settings: Homo sapiens, NCI-H209;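 further: growth inhibition of human NCI-H209 cells, measured by a cell viability assay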
Description: SANGER: Inhibition of human NCI-H209 cell growth in a cell viability assay.

EW-11 = assay type: functional, cell-based, Homo sapiens; settings: Homo sapiens, EW-11;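 further: growth inhibition of human EW-11 cells, measured with a cell viability assay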
Description: SANGER: Inhibition of human EW-11 cell growth in a cell viability assay.

NCI-H69 = assay type: functional, cell-based, Homo sapiens; settings: Homo sapiens, NCI-H69;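 further: growth inhibition of the cell line, read out with a cell viability assay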
Description: SANGER: Inhibition of human NCI-H69 cell growth in a cell viability assay.

DJM-1 = assay type: functional, cell-based, Homo sapiens; settings: Homo sapiens, DJM-1;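 further: growth inhibition of human DJM-1 cells, read out by a cell viability assay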
Description: SANGER: Inhibition of human DJM-1 cell growth in a cell viability assay.

MOLT-4 = assay type: functional, cell-based, Homo sapiens; settings: Homo sapiens, MOLT-4;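 further: growth inhibition of MOLT-4 cells, determined with a cell viability readout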
Description: SANGER: Inhibition of human MOLT-4 cell growth in a cell viability assay.

697 = assay type: functional, cell-based, Homo sapiens; settings: Homo sapiens
Description: SANGER: Inhibition of human 697 cell growth in a cell viability assay.

NCI-H1650 = assay type: functional, cell-based, Homo sapiens; settings: Homo sapiens, NCI-H1650;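 further: growth inhibition of human NCI-H1650 cells measured by a cell viability assay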
Description: SANGER: Inhibition of human NCI-H1650 cell growth in a cell viability assay.

SK-N-FI = assay type: functional, cell-based, Homo sapiens; settings: Homo sapiens, SK-N-FI;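 further: cell viability assay measuring growth inhibition of human SK-N-FI cells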
Description: SANGER: Inhibition of human SK-N-FI cell growth in a cell viability assay.

MZ7-mel = assay type: functional, cell-based, Homo sapiens; settings: Homo sapiens, MZ7-mel;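 further: growth inhibition of human MZ7-mel cells, measured by a cell viability assay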
Description: SANGER: Inhibition of human MZ7-mel cell growth in a cell viability assay.

IST-SL1 = assay type: functional, cell-based, Homo sapiens; settings: Homo sapiens, IST-SL1;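 further: growth inhibition of human IST-SL1 cells, read out with a cell viability assay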
Description: SANGER: Inhibition of human IST-SL1 cell growth in a cell viability assay.

LS-1034 = assay type: functional, cell-based, Homo sapiens; settings: Homo sapiens, LS-1034
Description: SANGER: Inhibition of human LS-1034 cell growth in a cell viability assay.

COLO-800 = assay type: functional, cell-based, Homo sapiens; settings: Homo sapiens, COLO-800;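 further: growth inhibition of COLO-800 cells, read out with a cell viability assay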
Description: SANGER: Inhibition of human COLO-800 cell growth in a cell viability assay.

IST-MEL1 = assay type: functional, cell-based, Homo sapiens; settings: Homo sapiens, IST-MEL1;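 further: growth inhibition of the cell line, read out with a cell viability assay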
Description: SANGER: Inhibition of human IST-MEL1 cell growth in a cell viability assay.

LS-411N = assay type: functional, cell-based, Homo sapiens; settings: Homo sapiens, LS-411N
CTV-1 = assay type: functional, cell-based, Homo sapiens; settings: Homo sapiens, CTV-1;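 further: growth inhibition of the cell line, read out with a cell viability assay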
Description: SANGER: Inhibition of human CTV-1 cell growth in a cell viability assay.

SNU-C2B = assay type: functional, cell-based; settings: Homo sapiens;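 further: cell viability readout used to measure compound-driven suppression of SNU-C2B cell proliferation, IC50 marking half-maximal growth inhibition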
Description: SANGER: Inhibition of human SNU-C2B cell growth in a cell viability assay.

`Cc1ccc(C(=O)Nc2ccc(CN3CCN(C)CC3)c(C(F)(F)F)c2)cc1C#Cc1cnc2cccnn12` [PONATINIB] showed an IC50 (SF-539) greater than 512 nM, an IC50 (UACC-257) greater than 512 nM and an IC50 (KNS-81-FD) greater than 512 nM. The IC50 (SK-N-DZ) was greater than 512 nM, the IC50 (KARPAS-45) was 489 nM and the IC50 (RPMI-8866) was greater than 512 nM. The IC50 (ES6) was greater than 512 nM, the IC50 (MFM-223) was greater than 512 nM and the IC50 (COLO-668) was greater than 512 nM. It also gave an IC50 (NCI-H23) greater than 512 nM, an IC50 (SW872) greater than 512 nM and an IC50 (ONS-76) greater than 512 nM. It also gave an IC50 (SNU-5) greater than 512 nM, an IC50 (no-11) greater than 512 nM and an IC50 (BT-474) greater than 512 nM. The IC50 (D-263MG) was greater than 512 nM, the IC50 (NH-12) was greater than 512 nM and the IC50 (KLE) was greater than 512 nM. The IC50 (CTB-1) was 173 nM, the IC50 (IA-LM) was greater than 512 nM and the IC50 (KNS-42) was greater than 512 nM. For the same molecule, the IC50 (MPP-89) was 169 nM, the IC50 (JVM-2) was greater than 512 nM and the IC50 (J-RT3-T3-5) was greater than 512 nM. For the same molecule, the IC50 (NB10) was greater than 512 nM, the IC50 (MS-1) was greater than 512 nM and the IC50 (GI-ME-N) was greater than 512 nM. For the same molecule, the IC50 (A4-Fuk) was greater than 512 nM, the IC50 (Lu-65) was greater than 512 nM and the IC50 (COR-L88) was greater than 512 nM. The IC50 (SNU1) was greater than 512 nM, the IC50 (NCI-H1770) was greater than 512 nM and the IC50 (U-266) was greater than 512 nM. The IC50 (NCI-H209) was greater than 512 nM, the IC50 (EW-11) was greater than 512 nM and the IC50 (NCI-H69) was greater than 512 nM. It also gave an IC50 (DJM-1) greater than 512 nM, an IC50 (MOLT-4) greater than 512 nM and an IC50 697 of 189 nM. The IC50 (NCI-H1650) was greater than 512 nM, the IC50 (SK-N-FI) was greater than 512 nM and the IC50 (MZ7-mel) was greater than 512 nM. The IC50 (IST-SL1) was greater than 512 nM, the IC50 (LS-1034) was greater than 512 nM and the IC50 (COLO-800) was greater than 512 nM. For the same molecule, the IC50 (IST-MEL1) was greater than 512 nM, the IC50 (LS-411N) was greater than 512 nM and the IC50 (CTV-1) was 5.21 nM. For the same molecule, the IC50 (SNU-C2B) was greater than 512 nM.
